Laboratory results taken from patent US12122778B2, “Activating pyruvate kinase R” (Novo Nordisk Health Care AG, priority 2018, dated 2024).
Where two headings read alike, the source gives them in different places.

Columns and labels:
[1] = molecular target: PKR(G332S) (Homo sapiens, UniProt P30613, G332S); experiment: Luminescence Biochemical Assay (Kinase Glo Plus), PKR G332S mutant; conditions: with FBP; for activation at 1.54 µM: 1.54 μM compound, read-out: AC50 LUM KGP FBP % Fold@1.54 μM mean; for Emax: read-out: AC50 LUM KGP FBP MAX % FOLD mean
Protocol: (§1) In some embodiments, a PKR Activating Compound can have: (1) an AC50 value of less than 0.1 μM (e.g., compounds with AC50 values of “+++” in Table 13), 0.1-1.0 μM (e.g., compounds with AC50 values of “++” in Table 13), or 1.01-40 μM (e.g., compounds with AC50 values of “+” in Table 13); (2) a MAX % Fold of 75%-250%, 250-500%, or 75%-500%; and/or (3) a % Fold@1.54 μM of 75%-250%, 250-500%, or 75%-500%. In some embodiments, a PKR Activating Compound has (1) an AC50 value of less than 1.0 μM; (2) a MAX % Fold of 75%-500%; and/or (3) a % Fold@1.54 μM of 75%-500%.
(§2) The phosphorylation of Adenosine-5′-diphosphate (ADP) by various mutants of PKR was determined by the Kinase Glo Plus Assay (Promega) in the presence or absence of FBP [D-Fructose-1,6-diphosphate; BOC Sciences, CAS: 81028-91-3] as follows. Unless otherwise indicated, all reagents were purchased from Sigma-Aldrich. All reagents were prepared in buffer containing 50 mM Tris-HCl, 100 mM KCl, 5 mM MgCl2, and 0.01% Triton X100, 0.03% BSA, and 1 mM DTT. Enzyme and PEP [Phospho(enol) pyruvic acid] were added at 2× to all wells of an assay-ready plate containing serial dilutions of test compounds or DMSO vehicle. Final enzyme concentrations for PKR(wt), PKR(R510Q), and PKR(G332S) were 0.8 nM, 0.8 nM, and 10 nM respectively. Final PEP concentration was 100 μM. The Enzyme/PEP mixture was incubated with compounds for 30 minutes at RT before the assay was initiated with the addition of 2×ADP [Adenosine-5′-diphosphate] and KinaseGloPlus. Final concentration of ADP was 100 μM. […] For assays containing FBP, that reagent is added at 30 μM upon reaction initiation. Reactions were allowed to progress for 45 minutes at RT until luminescence was recorded by the BMG PHERAstar FS Multilabel Reader. All compounds were tested in triplicate at concentrations ranging from 42.5 μM to 2.2 nM in 0.83% DMSO.
(§3) Luminescence values were converted to % Fold increase by normalizing to the average of the DMSO control and multiplying by 100. Max, min, slope and AC50 were determined by the standard four parameter fit algorithm of ActivityBase XE Runner. Compounds were evaluated with three parameters—AC50, MAX % Fold, and % Fold@1.54 μM (FIG. 1). The AC50 value for a compound is the concentration (μM) corresponding to the midway between the maximum and minimum values of the four parameter logistic curve fit (i.e., at which the % fold increase along the four parameter logistic curve fit is halfway between MAX % Fold and MIN % Fold (% Fold Midpoint)), MAX % Fold is the highest fold increase observed at any concentration of compound, and % Fold@1.54 μM is the fold increase at a compound concentration of 1.54 μM. The parameter % Fold@1.54 μM was selected to capture elements of both the AC50 and MAX % Fold and to provide a ranking based on both potency and effect. The compound concentration of 1.54 μM was chosen as one that can optimally differentiate the set of compounds based on the range of activities observed.
(§4) As set forth in Table 13 below, AC50 values (columns A, D, G) are defined as follows: ≤0.1 μM (+++); >0.1 μM and ≤1.0 μM (++); >1.0 μM and ≤40 μM (+); >40 μM (0). Max % FOLD values (columns B, E, H) are defined as follows: ≤75% (+); >75% and ≤250% (++); >250% and ≤500% (+++). % Fold@1.54 μM values (columns C, F, J) are defined as follows: ≤75% (+); >75% and ≤250% (++); >250% and ≤50000 (+++).

[2] = molecular target: PKR(R510Q) (Homo sapiens, UniProt P30613, R510Q); experiment: Luminescence Biochemical Assay (Kinase Glo Plus), PKR R510Q mutant; conditions: without FBP; for activation at 1.54 µM: 1.54 μM compound, read-out: AC50 LUM KGP woFBP % Fold@1.54 μM mean; for Emax: read-out: AC50 LUM KGP woFBP MAX % FOLD mean
Protocol: as §1, §2, §3, §4

[3] = molecular target: PKR(wt) (Homo sapiens, UniProt P30613); experiment: Luminescence Biochemical Assay (Kinase Glo Plus), wild type PKR; conditions: without FBP; for activation at 1.54 µM: 1.54 μM compound, read-out: AC50 LUM KGP woFBP % Fold@1.54 μM mean; for AC50: read-out: AC50 LUM KGP woFBP AC50 μM gmean; for Emax: read-out: AC50 LUM KGP woFBP MAX % FOLD mean
[4] = read-out: AC50 LUM KGP FBP AC50 μM gmean (column A)
[5] = read-out: AC50 LUM KGP woFBP AC50 μM gmean

PKR(R510Q), sequence (P30613 whole entry R510Q): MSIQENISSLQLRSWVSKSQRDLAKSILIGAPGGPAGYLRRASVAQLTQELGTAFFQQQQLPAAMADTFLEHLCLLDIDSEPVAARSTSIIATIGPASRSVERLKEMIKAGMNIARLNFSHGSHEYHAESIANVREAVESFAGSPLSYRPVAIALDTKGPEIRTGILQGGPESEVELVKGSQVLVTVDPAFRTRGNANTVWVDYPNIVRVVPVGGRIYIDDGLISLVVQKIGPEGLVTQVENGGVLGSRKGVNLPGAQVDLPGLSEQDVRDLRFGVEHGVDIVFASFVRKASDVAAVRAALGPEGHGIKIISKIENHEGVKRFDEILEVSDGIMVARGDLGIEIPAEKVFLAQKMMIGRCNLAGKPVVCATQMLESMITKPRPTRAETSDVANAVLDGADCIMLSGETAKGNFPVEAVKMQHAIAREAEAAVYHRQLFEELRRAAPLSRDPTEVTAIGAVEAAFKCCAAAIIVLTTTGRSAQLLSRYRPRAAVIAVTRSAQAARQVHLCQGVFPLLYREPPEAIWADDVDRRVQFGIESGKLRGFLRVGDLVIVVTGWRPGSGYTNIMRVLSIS
PKR(wt), sequence (P30613 whole entry): as the sequence (P30613 whole entry R510Q) above, with Q510R counted along it
PKR(G332S), sequence (P30613 whole entry G332S): as the sequence (P30613 whole entry R510Q) above, with G332S, Q510R counted along it

Compound	activation at 1.54 µM [1] [%]	AC50 [1, 4] [µM]	Emax [1] [%]	activation at 1.54 µM [2] [%]	AC50 [2, 5] [µM]	Emax [2] [%]	AC50 ([1]; gmean, read-out: A - AC50 LUM KGP FBP AC50 μM gmean) [µM]	AC50 ([2]; gmean, read-out: D - AC50 LUM KGP woFBP AC50 μM gmean) [µM]	activation at 1.54 µM [3] [%]	AC50 [3] [µM]	Emax [3] [%]
O=C(NCc1ccc(F)cc1)N1CC2=C(C1)CN(S(=O)(=O)c1ccc3occc3c1)C2 [Example 20-23, 5-(1-Benzofuran-5-sulfonyl)-N-[(4-fluorophenyl)methyl]-1H,2H,3H,4H,5H,6H-pyrrolo[3,4-c]pyrrole-2-carboxamide]	75 to 250	1 to 40	75 to 250	75 to 250	0.1 to 1	250 to 500					
Cc1cc(CNC(=O)N2CC3=C(C2)CN(S(=O)(=O)c2cccnc2)C3)no1 [Example 21-38, N-[(5-methyl-1,2-oxazol-3-yl)methyl]-5-(pyridine-3-sulfonyl)-1H,2H,3H,4H,5H,6H-pyrrolo[3,4-c]pyrrole-2-carboxamide]	75 to 250	1 to 40	75 to 250	75 to 250	1 to 40	250 to 500					
O=C(NCc1ccc(F)cc1)N1CC2=C(C1)CN(S(=O)(=O)c1ccc(F)cc1)C2 [Example 20-20, 5-(4-Fluorobenzenesulfonyl)-N-[(4-fluorophenyl)methyl]-1H,2H,3H,4H,5H,6H-pyrrolo[3,4-c]pyrrole-2-carboxamide]	75 to 250	≤ 0.1	75 to 250	75 to 250	0.1 to 1	250 to 500					
O=C(NCc1ccc(F)cc1)N1CC2=C(C1)CN(S(=O)(=O)c1ccc3nsnc3c1)C2 [Example 20-28, 5-(2,1,3-Benzothiadiazole-5-sulfonyl)-N-[(4-fluorophenyl)methyl]-1H,2H,3H,4H,5H,6H-pyrrolo[3,4-c]pyrrole-2-carboxamide]	75 to 250	1 to 40	75 to 250	75 to 250	1 to 40	75 to 250					
Cc1cc(CNC(=O)N2CC3=C(C2)CN(S(=O)(=O)c2ccc4ncsc4c2)C3)no1 [Example 21-8, 5-(1,3-Benzothiazole-6-sulfonyl)-N-[(5-methyl-1,2-oxazol-3-yl)methyl]-1H,2H,3H,4H,5H,6H-pyrrolo[3,4-c]pyrrole-2-carboxamide]	75 to 250	≤ 0.1	75 to 250	250 to 50000	≤ 0.1	250 to 500					
COc1cccc(CNC(=O)N2CC3=C(C2)CN(S(=O)(=O)c2cccc(F)c2)C3)c1 [Example 20-8, 5-(3-Fluorobenzenesulfonyl)-N-[(3-methoxyphenyl)methyl]-1H,2H,3H,4H,5H,6H-pyrrolo[3,4-c]pyrrole-2-carboxamide]	75 to 250	1 to 40	75 to 250	75 to 250	0.1 to 1	75 to 250					
C[C@@H](C(=O)N1CC2=C(C1)CN(S(=O)(=O)c1c[nH]c3c(Cl)nccc13)C2)c1ccccc1 [Example 25]							1 to 40	1 to 40			
COc1ccccc1CNC(=O)N1CC2=C(C1)CN(S(=O)(=O)c1ccc(F)cc1)C2 [Example 20-6, 5-(4-Fluorobenzenesulfonyl)-N-[(2-methoxyphenyl)methyl]-1H,2H,3H,4H,5H,6H-pyrrolo[3,4-c]pyrrole-2-carboxamide]	75 to 250	≤ 0.1	75 to 250	75 to 250	0.1 to 1	250 to 500					
Cc1nc(S(=O)(=O)N2CC3=C(CN(C(=O)C(C)n4cnc5ccccc54)C3)C2)cn1C (centres unmarked) [Example 19-9, 2-(1H-Benzo[d]imidazol-1-yl)-1-(5-((1,2-dimethyl-1H-imidazol-4-yl)sulfonyl)-3,4,5,6-tetrahydropyrrolo[3,4-c]pyrrol-2(1H)-yl)propan-1-one]	75 to 250	0.1 to 1	75 to 250	75 to 250	1 to 40	75 to 250					
Cc1noc(C)c1S(=O)(=O)N1CC2=C(CN(C(=O)[C@H](O)c3ccccc3)C2)C1 [Example 18-44, (2R)-1-{5-[(dimethyl-1,2-oxazol-4-yl)sulfonyl]-1H,2H,3H,4H,5H,6H-pyrrolo[3,4-c]pyrrol-2-yl}-2-hydroxy-2-phenylethan-1-one]	75 to 250	1 to 40	75 to 250	75 to 250	1 to 40	75 to 250					
O=C(NCc1ccc(F)cc1)N1CC2=C(C1)CN(S(=O)(=O)c1cccc3nonc13)C2 [Example 20-24, 5-(2,1,3-Benzoxadiazole-4-sulfonyl)-N-[(4-fluorophenyl)methyl]-1H,2H,3H,4H,5H,6H-pyrrolo[3,4-c]pyrrole-2-carboxamide]	75 to 250	1 to 40	75 to 250	75 to 250	0.1 to 1	250 to 500					
COc1cccc(CNC(=O)N2CC3=C(C2)CN(S(=O)(=O)c2ccc4nsnc4c2)C3)c1 [Example 20-25, 5-(2,1,3-Benzothiadiazole-5-sulfonyl)-N-[(3-methoxyphenyl)methyl]-1H,2H,3H,4H,5H,6H-pyrrolo-[3,4-c]pyrrole-2-carboxamide]	75 to 250	0.1 to 1	75 to 250	75 to 250	1 to 40	75 to 250					
COCCNC(=O)N1CC2=C(C1)CN(S(=O)(=O)c1ccc3c(c1)N(C)CCO3)C2 [Example 21-24]	75 to 250	0.1 to 1	75 to 250	75 to 250	0.1 to 1	250 to 500					
O=C([C@H](O)c1ccccc1)N1CC2=C(C1)CN(S(=O)(=O)c1ccc(Cl)cc1)C2 [Example 18-10, (2R)-1-[5-(4-chlorobenzenesulfonyl)-1H,2H,3H,4H,5H,6H-pyrrolo[3,4-c]pyrrol-2-yl]-2-hydroxy-2-phenylethan-1-one]				75 to 250	1 to 40	250 to 500			75 to 250	0.1 to 1	75 to 250
N#Cc1ccc(S(=O)(=O)N2CC3=C(CN(C(=O)[C@H](O)c4ccccc4)C3)C2)cc1 [Example 18-45, 4-({5-[(2R)-2-hydroxy-2-phenylacetyl]-1H,2H,3H,4H,5H,6H-pyrrolo[3,4-c]pyrrol-2-yl}sulfonyl)benzonitrile]				75 to 250	0.1 to 1	250 to 500			75 to 250	0.1 to 1	75 to 250
CC(C)Oc1ccc(CNC(=O)N2CC3=C(C2)CN(S(=O)(=O)c2ccc4ncsc4c2)C3)cc1 [Example 21-31, 5-(1,3-Benzothiazole-6-sulfonyl)-N-{[4-(propan-2-yloxy)phenyl]methyl}-1H,2H,3H,4H,5H,6H-pyrrolo[3,4-c]pyrrole-2-carboxamide]				75 to 250	1 to 40	75 to 250			75 to 250	1 to 40	75 to 250
